The values that follow come from paper PMC12552937, “Kinetic mechanisms of electron bifurcation with electron transfer flavoprotein, NADH, butyryl-CoA dehydrogenase, and ferredoxin reveal a semiquinone cycle” (The Journal of Biological Chemistry, 2025).

In general, Kd refers to the concentration at which binding is half-saturated.

Molecules are shown by their SMILES.

The target in test [1] is T1, EtfAB (electron transfer flavoprotein) (Acidaminococcus fermentans, UniProt D2RIQ2).
T1 construct: gene Acfer_0555; recombinant from E. coli, pET-11a, no tag told; heterodimer with alpha-FAD (EtfA) and beta-FAD (EtfB); with Electron transfer flavoprotein subunit alpha
T1 sequence (D2RIQ2 1-263): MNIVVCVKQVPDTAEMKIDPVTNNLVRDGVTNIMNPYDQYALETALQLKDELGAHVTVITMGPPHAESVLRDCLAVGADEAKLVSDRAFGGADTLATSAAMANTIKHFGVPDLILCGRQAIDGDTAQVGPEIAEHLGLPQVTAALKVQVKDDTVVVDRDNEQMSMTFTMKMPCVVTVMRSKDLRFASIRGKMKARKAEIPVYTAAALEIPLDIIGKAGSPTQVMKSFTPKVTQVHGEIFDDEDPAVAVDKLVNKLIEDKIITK
T1 sequence (D2RIQ3 1-340 partner): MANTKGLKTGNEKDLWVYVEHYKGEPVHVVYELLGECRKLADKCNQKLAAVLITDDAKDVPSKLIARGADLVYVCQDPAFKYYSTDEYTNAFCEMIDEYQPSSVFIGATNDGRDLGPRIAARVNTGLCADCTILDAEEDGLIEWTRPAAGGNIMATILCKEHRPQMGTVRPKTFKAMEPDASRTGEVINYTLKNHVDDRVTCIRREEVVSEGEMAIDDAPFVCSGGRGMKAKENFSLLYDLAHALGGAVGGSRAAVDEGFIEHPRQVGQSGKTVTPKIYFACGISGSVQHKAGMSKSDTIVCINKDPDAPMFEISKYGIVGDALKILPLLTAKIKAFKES
As to the kind of experiment: anaerobic stopped-flow, beta-FAD reduction and charge-transfer complex at […] nm. The class given is biochemical. As to conditions: 40 μM EtfAB + 40 μM NADH, 50 mM potassium phosphate pH 7.0, 4 °C; beta-FAD site.

In test [2] the target is T2, Bcd (butyryl-CoA dehydrogenase) (Acidaminococcus fermentans, UniProt D2RL84).
T2 construct: gene Acfer_1477; recombinant from E. coli, pET-11a, no tag told; homotetramer with one delta-FAD per subunit
T2 sequence (D2RL84 1-383): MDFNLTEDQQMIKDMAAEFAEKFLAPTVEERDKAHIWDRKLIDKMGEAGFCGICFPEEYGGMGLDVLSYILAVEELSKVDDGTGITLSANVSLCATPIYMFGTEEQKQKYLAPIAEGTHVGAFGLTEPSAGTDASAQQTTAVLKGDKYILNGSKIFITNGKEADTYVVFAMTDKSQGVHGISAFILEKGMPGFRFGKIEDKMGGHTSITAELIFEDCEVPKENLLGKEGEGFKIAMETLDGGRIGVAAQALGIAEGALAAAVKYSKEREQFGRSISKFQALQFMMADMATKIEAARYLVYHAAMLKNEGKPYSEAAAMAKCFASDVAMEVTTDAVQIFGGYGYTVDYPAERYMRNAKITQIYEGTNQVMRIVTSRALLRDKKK
As to the kind of experiment: static titration, double-beam UV-visible difference absorbance at […] nm. The class given is binding.

On to `NC(=O)C1=CN([C@@H]2O[C@H](COP(=O)(O)OP(=O)(O)OC[C@H]3O[C@@H](n4cnc5c(N)ncnc54)[C@H](O)[C@@H]3O)[C@@H](O)[C@H]2O)C=CC1` [NADH], for which the “anaerobic stopped-flow, beta-FAD reduction and charge-transfer complex at 650 nm” value in test [1] is “mixing EtfAB with a stoichiometric amount NADH resulted in a rapid reduction of β-FAD”. For `C/C=C/C(=O)SCCNC(=O)CCNC(=O)[C@H](O)C(C)(C)COP(=O)(O)OP(=O)(O)OC[C@H]1O[C@@H](n2cnc3c(N)ncnc32)[C@H](O)[C@@H]1OP(=O)(O)O` [crotonyl-CoA], the Kd in test [2] was 95 ± 6 µM.
